Results: PubChem BioAssay AID1963829 (Molecular Pharmacology Branch, DTP, NCI, 2024)

Tested on: 935938-334-R-J1-PDC complex spheroid viability
Test: Anticancer human tumor 935938-334-R-J1-PDC patient-derived small intestine adenocarcinoma cell line growth inhibition [POLQ]
Settings: for IC50: curve of first compound; for viability, T/C: stronger effect = lower value
Procedure, shortened: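 PDC + HUVEC + MSC complex spheroids; POLQ inhibitors ± partner drugs; top conc. at/near clinical Cmax, else 10 microM (SN-38 1 microM), half-log dilutions; 37 degrees C, 5% CO2.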

[1] = second compound 0.0316 µM, first compound 0.0316 µM
[2] = second compound 0.0316 µM, first compound 0.1 µM
[3] = second compound 0.0316 µM, first compound 0.316 µM
[4] = second compound 0.0316 µM, first compound 1 µM
[5] = second compound 0.0316 µM, first compound 3.16 µM
[6] = second compound 0.0316 µM, first compound 10 µM
[7] = second compound 0.1 µM, first compound 0.0316 µM
[8] = second compound 0.1 µM, first compound 0.1 µM
[9] = second compound 0.1 µM, first compound 0.316 µM
[10] = second compound 0.1 µM, first compound 1 µM
[11] = second compound 0.1 µM, first compound 3.16 µM
[12] = second compound 0.1 µM, first compound 10 µM
[13] = second compound 0.316 µM, first compound 0.0316 µM
[14] = second compound 0.316 µM, first compound 0.1 µM
[15] = second compound 0.316 µM, first compound 0.316 µM
[16] = second compound 0.316 µM, first compound 1 µM
[17] = second compound 0.316 µM, first compound 3.16 µM
[18] = second compound 0.316 µM, first compound 10 µM
[19] = second compound 1 µM, first compound 0.0316 µM
[20] = second compound 1 µM, first compound 0.1 µM
[21] = second compound 1 µM, first compound 0.316 µM
[22] = second compound 1 µM, first compound 1 µM
[23] = second compound 1 µM, first compound 3.16 µM
[24] = second compound 1 µM, first compound 10 µM
[25] = second compound 3.16 µM, first compound 0.0316 µM
[26] = second compound 3.16 µM, first compound 0.1 µM
[27] = second compound 3.16 µM, first compound 0.316 µM
[28] = second compound 3.16 µM, first compound 1 µM
[29] = second compound 3.16 µM, first compound 3.16 µM
[30] = second compound 3.16 µM, first compound 10 µM
[31] = second compound 10 µM, first compound 0.0316 µM
[32] = second compound 10 µM, first compound 0.1 µM
[33] = second compound 10 µM, first compound 0.316 µM
[34] = second compound 10 µM, first compound 1 µM
[35] = second compound 10 µM, first compound 3.16 µM
[36] = second compound 10 µM, first compound 10 µM
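Also: spheroids exposed to drugs for seven days before viability read.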
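For viability, T/C in this document: 100% = DMSO vehicle control wells.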

**Q.** For `CNCc1ccc(-c2[nH]c3cc(F)cc4c3c2CCNC4=O)cc1` + COC1C(OC(N)=O)C(O)C(Oc2ccc3c(O)c(NC(=O)c4ccc(O)c(CC=C(C)C)c4)c(=O)oc3c2C)OC1(C)C, which IC50 (second compound 0.0316 µM) is on record?
**A.** > 10 µM

**Q.** And the IC50 (second compound 0.1 µM)?
**A.** > 10 µM

**Q.** What about the IC50 (second compound 0.316 µM) of the same compound?
**A.** > 10 µM

**Q.** What about the IC50 (second compound 1 µM) of the same compound?
**A.** > 10 µM

**Q.** What about the IC50 (second compound 3.16 µM) of the same compound?
**A.** > 10 µM

**Q.** What about the IC50 (second compound 10 µM) of the same compound?
**A.** > 10 µM

**Q.** And the viability, T/C [1]?
**A.** 124%

**Q.** And the viability, T/C [2]?
**A.** 97.1%

**Q.** What about the viability, T/C [3] of the same compound?
**A.** 87.9%

**Q.** What about the viability, T/C [4] of the same compound?
**A.** 87.4%

**Q.** What about the viability, T/C [5] of the same compound?
**A.** 75.4%

**Q.** What about the viability, T/C [6] of the same compound?
**A.** 83.4%

**Q.** What about the viability, T/C [7] of the same compound?
**A.** 79.9%

**Q.** And the viability, T/C [8]?
**A.** 111%

**Q.** And the viability, T/C [9]?
**A.** 94.9%

**Q.** What about the viability, T/C [10] of the same compound?
**A.** 87.6%

**Q.** And the viability, T/C [11]?
**A.** 98.5%

**Q.** What about the viability, T/C [12] of the same compound?
**A.** 96.7%

**Q.** And the viability, T/C [13]?
**A.** 115%

**Q.** What about the viability, T/C [14] of the same compound?
**A.** 108%

**Q.** And the viability, T/C [15]?
**A.** 94.9%

**Q.** What about the viability, T/C [16] of the same compound?
**A.** 92.3%

**Q.** And the viability, T/C [17]?
**A.** 84%

**Q.** What about the viability, T/C [18] of the same compound?
**A.** 87.8%

**Q.** And the viability, T/C [19]?
**A.** 92.6%

**Q.** And the viability, T/C [20]?
**A.** 105%

**Q.** And the viability, T/C [21]?
**A.** 113%

**Q.** And the viability, T/C [22]?
**A.** 105%

**Q.** What about the viability, T/C [23] of the same compound?
**A.** 98.8%

**Q.** And the viability, T/C [24]?
**A.** 92.9%

**Q.** And the viability, T/C [25]?
**A.** 87.5%

**Q.** What about the viability, T/C [26] of the same compound?
**A.** 100%

**Q.** And the viability, T/C [27]?
**A.** 70.7%

**Q.** And the viability, T/C [28]?
**A.** 75.2%

**Q.** What about the viability, T/C [29] of the same compound?
**A.** 94%

**Q.** What about the viability, T/C [30] of the same compound?
**A.** 99.2%

**Q.** And the viability, T/C [31]?
**A.** 95.7%

**Q.** And the viability, T/C [32]?
**A.** 113%

**Q.** And the viability, T/C [33]?
**A.** 82.9%

**Q.** And the viability, T/C [34]?
**A.** 94.4%

**Q.** What about the viability, T/C [35] of the same compound?
**A.** 117%

**Q.** And the viability, T/C [36]?
**A.** 88.7%

**Q.** For `COc1ccc([C@@H](O)c2cc(-c3ncnc4cc(N5CCOCC5)ccc34)c(F)cc2Cl)nn1` + Cc1cccc(N(C)C(=O)C2C(O)CCN2c2nc(C)cc(C(F)(F)F)c2C#N)c1, which IC50 (second compound 0.0316 µM) is on record?
**A.** 6.02 µM

**Q.** What about the IC50 (second compound 0.1 µM) of the same compound?
**A.** 4.28 µM

**Q.** And the IC50 (second compound 0.316 µM)?
**A.** 3.2 µM

**Q.** What about the IC50 (second compound 1 µM) of the same compound?
**A.** 6.41 µM

**Q.** What about the IC50 (second compound 3.16 µM) of the same compound?
**A.** 3.7 µM

**Q.** And the IC50 (second compound 10 µM)?
**A.** 2.58 µM

**Q.** What about the viability, T/C [1] of the same compound?
**A.** 79.3%

**Q.** What about the viability, T/C [2] of the same compound?
**A.** 117%

**Q.** And the viability, T/C [3]?
**A.** 76.8%

**Q.** What about the viability, T/C [4] of the same compound?
**A.** 79.1%

**Q.** And the viability, T/C [5]?
**A.** 63.8%

**Q.** And the viability, T/C [6]?
**A.** 39.9%

**Q.** And the viability, T/C [7]?
**A.** 75.3%

**Q.** What about the viability, T/C [8] of the same compound?
**A.** 98.1%

**Q.** What about the viability, T/C [9] of the same compound?
**A.** 69.6%

**Q.** And the viability, T/C [10]?
**A.** 60.3%

**Q.** And the viability, T/C [11]?
**A.** 61.4%

**Q.** And the viability, T/C [12]?
**A.** 34.5%

**Q.** And the viability, T/C [13]?
**A.** 116%

**Q.** What about the viability, T/C [14] of the same compound?
**A.** 98.9%

**Q.** What about the viability, T/C [15] of the same compound?
**A.** 97.6%

**Q.** And the viability, T/C [16]?
**A.** 75.8%

**Q.** What about the viability, T/C [17] of the same compound?
**A.** 48.2%

**Q.** What about the viability, T/C [18] of the same compound?
**A.** 30.3%

**Q.** And the viability, T/C [19]?
**A.** 90.6%

**Q.** And the viability, T/C [20]?
**A.** 80.2%

**Q.** And the viability, T/C [21]?
**A.** 83.4%

**Q.** What about the viability, T/C [22] of the same compound?
**A.** 97.6%

**Q.** What about the viability, T/C [23] of the same compound?
**A.** 72.7%

**Q.** And the viability, T/C [24]?
**A.** 35.8%

**Q.** What about the viability, T/C [25] of the same compound?
**A.** 101%

**Q.** And the viability, T/C [26]?
**A.** 85%

**Q.** And the viability, T/C [27]?
**A.** 81.8%

**Q.** What about the viability, T/C [28] of the same compound?
**A.** 67.2%

**Q.** And the viability, T/C [29]?
**A.** 55%

**Q.** And the viability, T/C [30]?
**A.** 33.1%

**Q.** And the viability, T/C [31]?
**A.** 103%

**Q.** What about the viability, T/C [32] of the same compound?
**A.** 80.8%

**Q.** What about the viability, T/C [33] of the same compound?
**A.** 85.6%

**Q.** What about the viability, T/C [34] of the same compound?
**A.** 59.9%

**Q.** What about the viability, T/C [35] of the same compound?
**A.** 48.9%

**Q.** What about the viability, T/C [36] of the same compound?
**A.** 28.4%
